In US11434205B2, “Substituted imidazole carboxylate derivatives and the use thereof” (priority 2018, dated 2022):
Read-outs that look alike come from different tables or passages of the source.

Key:
rats [1] = experiment: Loss of righting reflexes (LORR) assay in rats, ED50 by up and down method; assay type: in vivo, rat; conditions: tail vein, class symbols; for ED50: Rattus norvegicus
Summary of the method: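 Adult male Sprague-Dawley rats (250-300 g) dosed i.v. via tail vein at 0.1 mL/s. Anesthesia scored as loss of righting reflex lasting >30 s; ED50 derived by up-and-down method.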

rats [2] = test system: rats
Description: Adult male Sprague-Dawley rats (250-300 g) were selected for the experiment. […] The anesthesia effects of the compounds were assessed in rats using a LORR assay and a period >30 s was considered as an indicator of general anesthesia. Then the up and down method was used to determine 50% effective dose (ED50). The drugs were administered through the tail vein of rats in a volume of 0.6 mL and at a rate of 0.1 mL/s.

rats [3] = assay type: in vivo, rat; conditions: rats of the MAP/HR figures, 2×ED50, tail vein; same value in min
Summary of the method: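 Rats implanted with telemetry (left ventricular and abdominal aortic catheters, ECG leads) at least one week before recording; compounds given via lateral tail-vein catheter. MAP and HR sampled every 15 s for 30 min before and after dosing to judge hemodynamic stability.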

[4] = test system: secretion of cortisol, H295R cell line; experiment: cells; assay type: cell-based; conditions: for EC50: read-out: EC50 (Cortisol)
Description: (§1) The Effects of the Compounds on Adrenocortical Function In Vitro Test
(§2) Then secretion of the cortisol and corticosterone in the supernatant, was measured using HPLC-MS/MS method to determine whether the compounds of the present invention had adrenotoxic potential.

[5] = test system: secretion of corticosterone, H295R cell line; experiment: cells; assay type: cell-based; conditions: for EC50: read-out: EC50 (Corticosterone)
Description: as §1, §2

rats [6] = assay type: in vivo, rat; conditions: rats of the MAP/HR figures, 2×ED50, tail vein
rats [7] = experiment: Pharmacological characteristics at equivalent doses (2×ED50) in rats; conditions: 2×ED50, tail vein; for Adverse reactions: Red urine (incidence): DMSO solution (DMSO alone 10/10); for Onset time: time of LORR
Summary of the method: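 Adult male Sprague-Dawley rats (250-300 g, n=8) received each drug at twice its ED50 via tail vein (0.6 mL at 0.1 mL/s). Onset of anesthesia taken as time to LORR.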

rats [8] = conditions: for Adverse reactions: Tremor (incidence): continuous infusion 2×MIR
Description: Pharmacological Effects of the Compounds on Continuous Infusion in Rats
Adult male Sprague-Dawley rats with body weight ranging from 250 to 300 gm were selected for continuous infusion test. […] Time to recovery of righting reflex from stopping infusion, and time to fully awake from stopping infusion were recorded.

[9] = H295R cell line, 0.1-10000 nM, HPLC-MS/MS, Table D3
[10] = continuous tail vein infusion at 2×MIR, LORR maintained 1 hour, Table D4
[11] = continuous tail vein infusion at 2×MIR, LORR maintained 1 hour, Table C4
[12] = emulsion, continuous infusion at 2×MIR
[13] = H295R cell line, 0.1-10000 nM, HPLC-MS/MS, Table E3
[14] = continuous tail vein infusion at 2×MIR, LORR maintained 1 hour, Table E4

Row | SMILES | ED50 (rats [1]) [mg/kg] | Approximate therapeutic index (rats [2]) | Minimal lethal dose (rats [2]) [mg/kg] | recovery time of the test animals' righting reflex (rats [3]) [min] | EC50 ([4]; Homo sapiens, NCI-H295R) [nM] | EC50 ([5]; Homo sapiens, NCI-H295R) [nM] | recovery time of the test animals' righting reflex (rats [6]) [s] | Righting reflex duration (rats [7]) [min] | Adverse reactions: Red urine (incidence) (rats [7]) | Onset time (rats [7]) [min] | Cortisol as an indicator to determine the presence of inhibition ([4]; H295R, Table C3) | Corticosterone as an indicator to determine the presence of inhibition ([5]; H295R, Table C3) | Onset time (rats [8]; [11]) [min] | Recovery time after stopping infusion (rats [8]; [11]) [min] | Types and incidence of adverse reactions (rats [8]; [11]) | Cortisol as an indicator to determine the presence of inhibition ([4]; H295R, Table A3) | Corticosterone as an indicator to determine the presence of inhibition ([5]; H295R, Table A3) | Recovery time after stopping infusion (rats [8]; after 1 hour infusion at 2×MIR) [min] | Adverse reactions: Tremor (incidence) (rats [8]) | Onset time (rats [8]; [12]) [min] | also measured
1 | C/C=C/C1(OC(=O)c2cncn2[C@H](C)c2ccccc2)COC1 [Compound D42] | 0.5 to 1 | >12 | >9 | 5.38 | > 1000 | > 1000 | 323 | 2.50 ± 1.18 | Red urine (8/8) | 0.13 ± 0.02 | – | – | – | – | – | – | – | – | – | – | Cortisol as an indicator to determine the presence of inhibition [4, 9]: 0; Corticosterone as an indicator to determine the presence of inhibition [5, 9]: 0; Onset time (rats [8]; [10]): 3 to 4 min; Recovery time after stopping infusion (rats [8]; [10]): 12 to 16 min; Types and incidence of adverse reactions (rats [8]; [10]): Tremor (6/6)
2 | CC(=O)C1(OC(=O)c2cncn2[C@H](C)c2ccccc2)COC1 [Compound C3] | 0.5 to 1 | >14 | >10 | 1.25 | > 1000 | > 1000 | 75 | 1.31 ± 0.95 | urine (8/8) | 0.36 ± 0.12 | 0 | 0 | 3 to 4 | 10 to 14 | Restlessness (2/6), Tremor (3/6) | – | – | – | – | – | Adverse reactions: Restlessness (incidence) (rats [7]): Restlessness (3/8), Red
3 | C[C@H](c1ccccc1)n1cncc1C(=O)OCC1CCC1 [Compound A8] | 0.1 to 0.5 | >10 | >2 | 2.15 | > 1000 | > 1000 | 129 | 2.25 ± 2.64 | Red urine (8/8) | 0.34 ± 0.21 | – | – | – | – | – | 0 | 0 | 9 to 14 | Tremor (1/6) | 3 to 4 | –
4 | C[C@H](c1ccccc1)n1cncc1C(=O)OC1CCC1 [Compound A17] | 0.5 to 1 | >11 | >6 | 5.45 | > 10000 | > 10000 | 327 | 5.78 ± 2.28 | Red urine (8/8) | 0.13 ± 0.03 | – | – | – | – | – | 0 | 0 | 19 to 25 | Tremor (2/6) | 2 to 3 | Adverse reactions: Tongue stretching (incidence) (rats [7]): Tongue stretching (2/8),
5 | C[C@H](c1ccccc1)n1cncc1C(=O)OC(C)(C)C [Compound C18] | 0.1 to 0.5 | >14 | >5 | 1.92 | > 1000 | > 1000 | 115 | 1.96 ± 1.39 | (8/8) | 0.25 ± 0.13 | 0 | 0 | 3 to 4 | 10 to 14 | Tremor (1/6) | – | – | – | – | – | Adverse reactions: Tremor (incidence) (rats [7]; animals affected/animals): Tremor (5/8), Red urine
6 | C[C@H](c1ccccc1)n1cncc1C(=O)OCCC1CCC1 [Compound A18] | 0.1 to 0.5 | >22 | >5 | 4.55 | > 1000 | > 1000 | 273 | 4.77 ± 1.73 | Red urine (8/8) | 0.20 ± 0.09 | – | – | – | – | – | 0 | 0 | 11 to 15 | Tremor (5/6) | 3 to 4 | –
7 | C[C@H](c1ccccc1)n1cncc1C(=O)OCC1(C)COC1 [Compound B5] | 0.1 to 0.5 | >11 | >10 | 4.25 | > 1000 | > 10000 | 255 | 3.98 ± 1.34 | Red urine (8/8) | 0.11 ± 0.02 | – | – | – | – | – | – | – | 12 to 14 | Tremor (2/6) | 3 to 4 | Cortisol as an indicator to determine the presence of inhibition ([4]; H295R, Table B3): 0; Corticosterone as an indicator to determine the presence of inhibition ([5]; H295R, Table B3): 0
8 | C=C=CC1(OC(=O)c2c(F)ncn2[C@H](C)c2ccccc2)COC1 [Compound E37] | – | >30 | >0.6 | 1.67 | – | – | 100 | 1.75 ± 0.26 | (8/8) | 0.25 ± 0.15 | – | – | – | – | – | – | – | – | – | – | ED50 (mg/kg) (rats [1]): A (A indicates that the measured ED50 is in the range of 0.01-0.10 mg/kg (including 0.01 and 0.10 mg/kg).); Cortisol as an indicator to determine the presence of inhibition [4, 13]: 0; EC50 [4, 13]: > 10000 nM; Corticosterone as an indicator to determine the presence of inhibition [5, 13]: 0; EC50 [5, 13]: > 10000 nM; Sedation duration (mg/kg) (rats [7]): 3.66 ± 1.12; Onset time (rats [8]; [14]): 2 to 3 min; Recovery time after stopping infusion (rats [8]; [14]): 7 to 10 min; Types and incidence of adverse reactions (rats [8]; [14]): Tremor (2/6)
9 | CC(=O)CCOC(=O)c1cncn1[C@H](C)c1ccccc1 [Compound C7] | 0.1 to 0.5 | >10 | >4 | 1.87 | > 1000 | > 1000 | 112 | 1.68 ± 0.88 | Red urine (8/8) | 0.15 ± 0.06 | 0 | 0 | 3 to 4 | 8 to 14 | Tremor (6/6) | – | – | – | – | – | Adverse reactions: Muscle twitching (incidence) (rats [7]): Muscle twitching (4/8),
10 | C=C=CC1(OC(=O)c2cncn2[C@H](C)c2ccccc2)COC1 [Compound D21] | 0.01 to 0.1 | >16 | >1 | 6.0 | > 1000 | > 1000 | 360 | 1.93 ± 0.95 | Red urine (8/8) | 0.15 ± 0.05 | – | – | – | – | – | – | – | – | – | – | Cortisol as an indicator to determine the presence of inhibition [4, 9]: 0; Corticosterone as an indicator to determine the presence of inhibition [5, 9]: 0; Adverse reactions: Hindlimb rigidity (incidence) (rats [7]): Hindlimb rigidity (2/8),; Onset time (rats [8]; [10]): 2 to 3 min; Recovery time after stopping infusion (rats [8]; [10]): 8 to 9 min; Types and incidence of adverse reactions (rats [8]; [10]): Tremor (4/6), Myoclonus (1/6)
